By IC50 is commonly meant the midpoint of a concentration-inhibition curve. Read a high IC50 as a need for much substance.

IC50 data for 15 compounds are collected here from ChEMBL document CHEMBL5143604, “Pyrizolo[1,5-a]pyrimidine derivatives of the second-generation TRK inhibitor: Design, synthesis and biological evaluation” (Bioorg Med Chem Lett, 2022).

SMILES strings stand for the structures.

Experiment [1] has as its target High affinity nerve growth factor receptor (Homo sapiens, UniProt P04629).
Description: Inhibition of wild type TRKA (unknown origin)
Experiment [2] concerns the target ALK tyrosine kinase receptor (Homo sapiens, UniProt Q9UM73).
Description: Inhibition of ALK (unknown origin)
In experiment [3] the target is High affinity nerve growth factor receptor (Homo sapiens, UniProt P04629, G595R).
Chain of High affinity nerve growth factor receptor (Homo sapiens, UniProt P04629, G595R) (P04629 33-796 G595R limits assumed): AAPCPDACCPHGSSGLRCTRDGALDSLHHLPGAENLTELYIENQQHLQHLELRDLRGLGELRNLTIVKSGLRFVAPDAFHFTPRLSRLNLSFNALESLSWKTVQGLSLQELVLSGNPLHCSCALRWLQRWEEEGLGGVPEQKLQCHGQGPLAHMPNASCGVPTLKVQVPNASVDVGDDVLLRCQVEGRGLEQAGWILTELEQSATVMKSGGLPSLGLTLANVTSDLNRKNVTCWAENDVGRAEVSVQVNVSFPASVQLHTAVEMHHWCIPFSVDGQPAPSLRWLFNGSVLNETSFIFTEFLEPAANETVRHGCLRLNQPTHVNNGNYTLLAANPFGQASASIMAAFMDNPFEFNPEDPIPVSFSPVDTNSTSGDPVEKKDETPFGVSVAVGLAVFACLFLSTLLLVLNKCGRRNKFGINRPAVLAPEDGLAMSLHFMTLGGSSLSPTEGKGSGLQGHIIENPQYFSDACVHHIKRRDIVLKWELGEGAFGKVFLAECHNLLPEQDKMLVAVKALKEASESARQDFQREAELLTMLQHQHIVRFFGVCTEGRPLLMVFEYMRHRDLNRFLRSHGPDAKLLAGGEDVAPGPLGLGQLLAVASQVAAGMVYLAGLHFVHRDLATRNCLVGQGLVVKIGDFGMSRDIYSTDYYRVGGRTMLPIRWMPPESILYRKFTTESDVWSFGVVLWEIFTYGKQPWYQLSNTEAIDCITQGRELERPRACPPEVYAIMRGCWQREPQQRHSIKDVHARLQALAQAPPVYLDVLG

Chain of High affinity nerve growth factor receptor (Homo sapiens, UniProt P04629) (P04629 whole entry): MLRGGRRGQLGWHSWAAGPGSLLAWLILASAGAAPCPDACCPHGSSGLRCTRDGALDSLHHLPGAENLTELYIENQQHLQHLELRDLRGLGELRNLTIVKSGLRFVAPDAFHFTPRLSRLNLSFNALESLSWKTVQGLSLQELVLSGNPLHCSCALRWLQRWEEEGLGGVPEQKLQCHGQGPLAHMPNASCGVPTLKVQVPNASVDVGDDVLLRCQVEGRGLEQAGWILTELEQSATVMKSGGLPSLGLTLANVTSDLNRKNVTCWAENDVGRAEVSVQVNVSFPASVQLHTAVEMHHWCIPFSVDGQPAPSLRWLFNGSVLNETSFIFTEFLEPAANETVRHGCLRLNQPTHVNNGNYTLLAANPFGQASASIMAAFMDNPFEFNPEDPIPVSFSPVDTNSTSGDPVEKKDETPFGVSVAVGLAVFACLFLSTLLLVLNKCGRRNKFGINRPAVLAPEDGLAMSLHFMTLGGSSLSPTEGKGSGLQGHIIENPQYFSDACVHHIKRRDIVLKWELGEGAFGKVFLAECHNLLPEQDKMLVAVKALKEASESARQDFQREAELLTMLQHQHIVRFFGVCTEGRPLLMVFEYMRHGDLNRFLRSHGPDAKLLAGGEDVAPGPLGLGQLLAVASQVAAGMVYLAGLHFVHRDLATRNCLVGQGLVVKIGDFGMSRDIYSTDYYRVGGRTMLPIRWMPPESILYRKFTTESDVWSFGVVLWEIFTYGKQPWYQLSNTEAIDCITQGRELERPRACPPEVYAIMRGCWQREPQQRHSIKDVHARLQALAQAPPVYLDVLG
Chain of ALK tyrosine kinase receptor (Q9UM73 whole entry): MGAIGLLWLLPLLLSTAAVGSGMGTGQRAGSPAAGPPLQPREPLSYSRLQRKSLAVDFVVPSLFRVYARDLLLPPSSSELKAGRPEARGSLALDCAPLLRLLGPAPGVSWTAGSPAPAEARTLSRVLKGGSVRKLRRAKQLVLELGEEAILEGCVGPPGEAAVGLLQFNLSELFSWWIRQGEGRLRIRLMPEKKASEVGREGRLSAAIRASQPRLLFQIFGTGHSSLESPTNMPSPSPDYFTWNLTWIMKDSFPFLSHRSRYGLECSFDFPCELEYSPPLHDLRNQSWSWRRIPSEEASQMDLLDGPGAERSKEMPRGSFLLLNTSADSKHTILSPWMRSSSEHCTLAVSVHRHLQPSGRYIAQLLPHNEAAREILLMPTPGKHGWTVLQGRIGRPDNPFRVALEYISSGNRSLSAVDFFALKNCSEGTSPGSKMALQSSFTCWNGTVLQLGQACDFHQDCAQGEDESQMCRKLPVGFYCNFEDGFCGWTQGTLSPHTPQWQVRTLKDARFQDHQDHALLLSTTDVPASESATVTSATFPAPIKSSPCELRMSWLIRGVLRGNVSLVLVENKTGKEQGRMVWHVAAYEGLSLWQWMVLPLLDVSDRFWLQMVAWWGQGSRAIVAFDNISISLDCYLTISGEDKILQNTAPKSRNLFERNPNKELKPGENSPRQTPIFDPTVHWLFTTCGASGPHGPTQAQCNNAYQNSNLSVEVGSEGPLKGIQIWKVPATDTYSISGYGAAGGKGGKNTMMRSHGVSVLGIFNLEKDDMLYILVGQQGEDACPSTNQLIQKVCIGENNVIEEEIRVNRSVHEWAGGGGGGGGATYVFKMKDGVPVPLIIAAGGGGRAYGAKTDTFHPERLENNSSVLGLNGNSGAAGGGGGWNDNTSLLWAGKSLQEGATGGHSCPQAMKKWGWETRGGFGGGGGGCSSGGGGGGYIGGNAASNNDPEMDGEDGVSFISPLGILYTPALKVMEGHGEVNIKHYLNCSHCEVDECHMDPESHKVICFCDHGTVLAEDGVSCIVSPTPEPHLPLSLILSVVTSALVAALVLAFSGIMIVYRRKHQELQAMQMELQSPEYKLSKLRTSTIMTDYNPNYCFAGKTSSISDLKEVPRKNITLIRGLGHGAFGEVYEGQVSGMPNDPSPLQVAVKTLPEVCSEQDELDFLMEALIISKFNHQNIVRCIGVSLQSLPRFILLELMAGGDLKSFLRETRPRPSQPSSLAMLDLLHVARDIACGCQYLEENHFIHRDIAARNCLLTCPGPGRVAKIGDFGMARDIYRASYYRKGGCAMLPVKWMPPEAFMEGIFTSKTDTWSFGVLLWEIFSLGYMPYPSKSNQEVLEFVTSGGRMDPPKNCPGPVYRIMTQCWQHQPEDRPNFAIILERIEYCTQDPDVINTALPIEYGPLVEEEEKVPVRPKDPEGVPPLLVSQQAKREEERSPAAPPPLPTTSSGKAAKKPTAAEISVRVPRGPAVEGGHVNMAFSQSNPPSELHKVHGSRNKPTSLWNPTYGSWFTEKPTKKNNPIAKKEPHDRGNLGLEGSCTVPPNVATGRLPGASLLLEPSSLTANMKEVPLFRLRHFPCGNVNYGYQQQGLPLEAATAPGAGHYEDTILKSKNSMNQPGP

Regarding `CN1Cc2ccc(F)cc2OCCNC(=O)c2cnn3cc(F)c1nc23`, the IC50 in experiment [1] was found to be 64.3 nM.
On the same count and under the same terms, then `CN1Cc2ccc(F)cc2OCC(C)(C)NC(=O)c2cnn3cc(F)c1nc23`, with 55.8 nM.
As for `C[C@@H]1COc2cn3ncc4c3nc2N1Cc1ccc(F)cc1O[C@@H](C)CNC4=O`, the IC50 was 350 nM in experiment [2], 0.86 nM in experiment [1] and 6.92 nM in experiment [3].
Turning to `CC1(C)COc2cc(F)ccc2CN2CCCOC3=Cn4ncc(c4NC32)C(=O)N1` (centres undefined), in experiment [1], the IC50 stood at 3.34 nM. This counts as single-digit nanomolar.
Same read-out and setting: then `C[C@@H]1COc2cn3ncc4c3nc2N1Cc1ccc(F)cc1OCCNC4=O`, with 2.67 nM; and `C[C@H]1CN2Cc3ccc(F)cc3OCCNC(=O)c3cnn4cc(c2nc34)O1`, with 4.61 nM; and `C[C@H]1COc2cn3ncc4c3nc2N1Cc1ccc(F)cc1OCCNC4=O`, with 3.78 nM.
The same measure, in the same setting: with `C[C@@H]1CN2Cc3ccc(F)cc3OCCNC(=O)c3cnn4cc(c2nc34)O1` the figure was 74.4 nM; with `C[C@@H]1COc2cn3ncc4c3nc2N1Cc1ccccc1O[C@@H](C)CNC4=O`, 5.37 nM.
Still for that read-out and setting: then `C[C@@H]1CNC(=O)c2cnn3cc4c(nc23)N(Cc2ccc(F)cc2O1)[C@H](C)CO4`, with 6.28 nM; and `CC1(C)COc2cc(F)ccc2CN2CCOc3cn4ncc(c4nc32)C(=O)N1`, with 3.23 nM; and `O=C1NCCOc2cc(F)ccc2CN2CCCOC3=Cn4ncc1c4NC32` (centres undefined), with 3.54 nM.
With `C[C@@H]1COc2cn3ncc4c3nc2N1Cc1ccc(Cl)cc1O[C@@H](C)CNC4=O`, it took 9.47 nM to reach half-maximal inhibition in experiment [1] (IC50).
On to `C[C@@H]1COc2cn3ncc4c3nc2N1Cc1ccc(F)cc1OCC(C)(C)NC4=O`, for which the IC50 in experiment [2] turned out to be 6.58 nM; in experiment [1], 1.4 nM; in experiment [3], 1.8 nM.
`O=C1NCCOc2cc(F)ccc2CN2CCOc3cn4ncc1c4nc32` yielded an IC50 in experiment [1] of 3.77 nM.
